This assay relates to CD2F1 mice, L1210 leukemia ip, survival T/C. As to the kind of experiment: NCI In Vivo Anticancer Drug Screen. Data for tumor model L1210 Leukemia (intraperitoneal) in CD2F1 (CDF1) mice. The settings on record: higher = longer survival. The method, boiled down: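 Read-out first: treated-group measurement over vehicle-control measurement, expressed as a ratio. Animals bore a transplanted tumor line and were dosed with compound or vehicle.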

Where [1] appears, read: endpoint: mean survival time, dose: 6.25 mg/kg/injection, schedule: Q04DX003 (ip), vehicle: saline.
The mark [2] stands for this setting: endpoint: mean survival time, dose: 12.5 mg/kg/injection, schedule: Q04DX003 (ip), vehicle: saline.
Setting [3] is: endpoint: mean survival time, dose: 25.0 mg/kg/injection, schedule: Q04DX003 (ip), vehicle: saline.
[4] abbreviates: endpoint: mean survival time, dose: 100.0 mg/kg/injection, schedule: Q04DX003 (ip), vehicle: saline with Tween-80.
Where [5] appears, read: endpoint: mean survival time, dose: 200.0 mg/kg/injection, schedule: Q04DX003 (ip), vehicle: saline with Tween-80.
Setting [6] is: endpoint: mean survival time, dose: 400.0 mg/kg/injection, schedule: Q04DX003 (ip), vehicle: saline with Tween-80.
Setting [7] is: endpoint: mean survival time, dose: 6.25 mg/kg/injection, schedule: Q01DX009 (ip), vehicle: saline with Tween-80.
[8] abbreviates: endpoint: mean survival time, dose: 12.5 mg/kg/injection, schedule: Q01DX009 (ip), vehicle: saline with Tween-80.
[9] abbreviates: endpoint: mean survival time, dose: 25.0 mg/kg/injection, schedule: Q01DX009 (ip), vehicle: saline with Tween-80.
The mark [10] stands for this setting: endpoint: mean survival time, dose: 50.0 mg/kg/injection, schedule: Q01DX009 (ip), vehicle: saline with Tween-80.
Setting [11] is: endpoint: mean survival time, dose: 100.0 mg/kg/injection, schedule: Q01DX009 (ip), vehicle: saline with Tween-80.

Inconclusive results and toxic doses are left out.

With `CCN(CC)CCOc1ccc(NC(=O)c2ccccc2)cc1`, the T/C is 101 % of control under setting [1], 101 % of control under setting [2] and 104 % of control under setting [3].
In the case of `O=C(O)c1ccccn1`, the T/C was 102 % of control (endpoint: mean survival time, dose: 50.0 mg/kg/injection, schedule: Q04HX027 (ip), vehicle: saline) and 93 % of control (endpoint: mean survival time, dose: 100.0 mg/kg/injection, schedule: Q04HX027 (ip), vehicle: saline).
As to `CCOCCN=C(N)C(N)=NCCOCC`, the T/C is 102 % of control (endpoint: mean survival time, dose: 50.0 mg/kg/injection, schedule: Q04DX002 (ip), vehicle: saline with Tween-80); 98 % of control (endpoint: mean survival time, dose: 100.0 mg/kg/injection, schedule: Q04DX002 (ip), vehicle: saline with Tween-80); 94 % of control (endpoint: mean survival time, dose: 200.0 mg/kg/injection, schedule: Q04DX002 (ip), vehicle: saline with Tween-80); 94 % of control (endpoint: mean survival time, dose: 400.0 mg/kg/injection, schedule: Q04DX002 (ip), vehicle: saline with Tween-80).
In the case of `C/C(CCC(CC(=O)O)C(C)C)=N\NC(N)=O` (stereo not drawn), the T/C under setting [4] is 97 % of control, the T/C under setting [5] was 97 % of control and the T/C under setting [6] is 103 % of control.
Consider `CCCC(=O)Nc1cc2c3c(c1)CCCN3CCC2`, for which the T/C is 97 % of control under setting [7], 97 % of control under setting [8] and 98 % of control under setting [9].
With `Cc1ccccc1C(C)NC1=NCCO1` (stereo not drawn), the T/C was 90 % of control under setting [7]; 96 % of control (endpoint: mean survival time, dose: 6.25 mg/kg/injection, schedule: Q04DX003 (ip), vehicle: saline with Tween-80); 96 % of control under setting [8]; 95 % of control (endpoint: mean survival time, dose: 12.5 mg/kg/injection, schedule: Q04DX003 (ip), vehicle: saline with Tween-80); 97 % of control under setting [9]; 93 % of control (endpoint: mean survival time, dose: 25.0 mg/kg/injection, schedule: Q04DX003 (ip), vehicle: saline with Tween-80).
Consider `CC1([CH2][Hg][Cl])Cc2ccccc2O1` (stereo not drawn), for which the T/C (endpoint: mean survival time, dose: 1.56 mg/kg/injection, schedule: Q01DX009 (ip), vehicle: saline with Tween-80) was 91 % of control; the T/C (endpoint: mean survival time, dose: 3.13 mg/kg/injection, schedule: Q01DX009 (ip), vehicle: saline with Tween-80) was 94 % of control; the T/C under setting [7] is 101 % of control.
Regarding `CCOC(=O)Nc1ccc(F)cc1C`, the T/C was 97 % of control under setting [4], 97 % of control under setting [5] and 95 % of control under setting [6].
For the molecule `CC(C)([NH-])C[NH-].O=C(O)CCO.[Pt+2]`, the T/C by setting is: (endpoint: median survival time, dose: 20.0 mg/kg/injection, schedule: Q04DX003 (ip), vehicle: saline) 255 % of control; (endpoint: median survival time, dose: 20.0 mg/kg/injection, schedule: Q04DX003 (ip), vehicle: water) 173 % of control; (endpoint: median survival time, dose: 40.0 mg/kg/injection, schedule: Q04DX003 (ip), vehicle: saline) 232 % of control; (endpoint: median survival time, dose: 40.0 mg/kg/injection, schedule: Q04DX003 (ip), vehicle: water) 170 % of control; (endpoint: median survival time, dose: 80.0 mg/kg/injection, schedule: Q04DX003 (ip), vehicle: saline) 116 % of control; (endpoint: median survival time, dose: 80.0 mg/kg/injection, schedule: Q04DX003 (ip), vehicle: water) 90 % of control.
In the case of `Cc1ccccc1N=C=S`, the T/C was 98 % of control under setting [8], 96 % of control under setting [9] and 106 % of control under setting [10].
In the case of `CN(C)CCNc1ccc(O)c2c1C(=O)c1ccccc1C2=O`, the T/C (endpoint: mean survival time, dose: 10.0 mg/kg/injection, schedule: Q01DX009 (ip), vehicle: saline with Tween-80) was 94 % of control; the T/C (endpoint: mean survival time, dose: 20.0 mg/kg/injection, schedule: Q01DX009 (ip), vehicle: saline with Tween-80) was 90 % of control; the T/C (endpoint: mean survival time, dose: 40.0 mg/kg/injection, schedule: Q01DX009 (ip), vehicle: saline with Tween-80) was 107 % of control; the T/C (endpoint: mean survival time, dose: 80.0 mg/kg/injection, schedule: Q01DX009 (ip), vehicle: saline with Tween-80) is 122 % of control.
In the case of `CCOC(=O)C(C)C(=O)NCc1ccccc1` (stereo not drawn), the T/C by setting is: (endpoint: mean survival time, dose: 25.0 mg/kg/injection, schedule: Q01DX009 (ip), vehicle: Klucel (hydroxypropylcellulose) (HPC)) 95 % of control; (endpoint: mean survival time, dose: 50.0 mg/kg/injection, schedule: Q01DX009 (ip), vehicle: Klucel (hydroxypropylcellulose) (HPC)) 96 % of control; (endpoint: mean survival time, dose: 100.0 mg/kg/injection, schedule: Q01DX009 (ip), vehicle: Klucel (hydroxypropylcellulose) (HPC)) 96 % of control; (endpoint: mean survival time, dose: 200.0 mg/kg/injection, schedule: Q01DX009 (ip), vehicle: Klucel (hydroxypropylcellulose) (HPC)) 93 % of control; (endpoint: mean survival time, dose: 400.0 mg/kg/injection, schedule: Q01DX009 (ip), vehicle: Klucel (hydroxypropylcellulose) (HPC)) 98 % of control.
For the molecule `CCN(Cc1cnc2nc(N)nc(N)c2n1)c1ccc(C(=O)NC(CCC(=O)O)C(=O)O)cc1` (stereo not drawn), the T/C runs as follows: (endpoint: mean survival time, dose: 2.5 mg/kg/injection, schedule: Q01DX009 (ip), vehicle: sodium bicarbonate) 172 % of control; (endpoint: mean survival time, dose: 5.0 mg/kg/injection, schedule: Q01DX009 (ip), vehicle: sodium bicarbonate) 174 % of control; (endpoint: mean survival time, dose: 6.25 mg/kg/injection, schedule: Q01DX009 (ip), vehicle: sodium bicarbonate) 89 % of control; (endpoint: mean survival time, dose: 10.0 mg/kg/injection, schedule: Q01DX009 (ip), vehicle: sodium bicarbonate) 217 % of control; (endpoint: mean survival time, dose: 12.5 mg/kg/injection, schedule: Q01DX009 (ip), vehicle: sodium bicarbonate) 92 % of control.
Consider `COC(=O)c1cccc(OCC(=O)Nc2ccccc2)c1`, for which the T/C (endpoint: mean survival time, dose: 100.0 mg/kg/injection, schedule: Q01DX001 (ip), vehicle: saline with Tween-80) is 101 % of control; the T/C (endpoint: mean survival time, dose: 200.0 mg/kg/injection, schedule: Q01DX001 (ip), vehicle: saline with Tween-80) is 93 % of control; the T/C (endpoint: mean survival time, dose: 400.0 mg/kg/injection, schedule: Q01DX001 (ip), vehicle: saline with Tween-80) is 92 % of control.
With `COC(=O)/C=C/C(=O)NC(N)=O`, the T/C under setting [1] is 91 % of control, the T/C under setting [2] was 113 % of control and the T/C under setting [3] was 100 % of control.
As to `Cc1ccc(Cl)c2ccccc12`, the T/C runs as follows: under setting [8], 97 % of control; under setting [9], 100 % of control; under setting [10], 97 % of control; under setting [11], 94 % of control.
In the case of `CCNc1nc(NCC)nc(SC)n1`, the T/C was 100 % of control under setting [10], 89 % of control under setting [11], 100 % of control under setting [4] and 97 % of control under setting [5].
With `COc1ccc(OCC(O)CO)cc1` (stereo not drawn), the T/C by setting is: (endpoint: mean survival time, dose: 100.0 mg/kg/injection, schedule: Q01DX001 (ip), vehicle: saline) 102 % of control; (endpoint: mean survival time, dose: 200.0 mg/kg/injection, schedule: Q01DX001 (ip), vehicle: saline) 102 % of control; (endpoint: mean survival time, dose: 400.0 mg/kg/injection, schedule: Q01DX001 (ip), vehicle: saline) 97 % of control.
Regarding `Nc1ncnc2c1ncn2C1OC(COP(N)(N)=O)C(O)C1O` (stereo not drawn), the T/C reads like this: (endpoint: mean survival time, dose: 12.5 mg/kg/injection, schedule: Q01DX005 (ip), vehicle: distilled water + Tween-80) 105 % of control; (endpoint: mean survival time, dose: 25.0 mg/kg/injection, schedule: Q01DX005 (ip), vehicle: distilled water + Tween-80) 98 % of control; (endpoint: mean survival time, dose: 50.0 mg/kg/injection, schedule: Q01DX005 (ip), vehicle: distilled water + Tween-80) 96 % of control; (endpoint: mean survival time, dose: 100.0 mg/kg/injection, schedule: Q01DX005 (ip), vehicle: distilled water + Tween-80) 102 % of control; (endpoint: mean survival time, dose: 200.0 mg/kg/injection, schedule: Q01DX005 (ip), vehicle: distilled water + Tween-80) 96 % of control.
As for `COC(c1ccccc1)C(C)O` (stereo not drawn), the T/C under setting [10] was 100 % of control; the T/C under setting [11] was 100 % of control; the T/C (endpoint: mean survival time, dose: 200.0 mg/kg/injection, schedule: Q01DX009 (ip), vehicle: saline with Tween-80) is 95 % of control.
Turning to `CC(C)CC#N`, the T/C under setting [11] was 100 % of control, the T/C under setting [4] is 101 % of control, the T/C under setting [5] is 104 % of control and the T/C under setting [6] is 104 % of control.
For the molecule `CCCCC#CCOCC(O)CCl` (stereo not drawn), the T/C was 95 % of control (endpoint: mean survival time, dose: 25.0 mg/kg/injection, schedule: Q01DX009 (ip), vehicle: water); 107 % of control (endpoint: mean survival time, dose: 50.0 mg/kg/injection, schedule: Q01DX009 (ip), vehicle: water); 103 % of control (endpoint: mean survival time, dose: 100.0 mg/kg/injection, schedule: Q01DX009 (ip), vehicle: water); 100 % of control (endpoint: mean survival time, dose: 200.0 mg/kg/injection, schedule: Q01DX009 (ip), vehicle: water).

Source of the values: PubChem BioAssay AID256 (DTP/NCI, 2004).
